test system: hydrochloric acid-ethanol-induced gastric ulcer; experiment: Effect against hydrochloric acid ethanol-induced gastric ulcer (percent suppression of lesion index, oral); format: in vivo, male JCL-SD rats or CRJ-SD rats; details: JCL-SD rats; oral; 30 μg/kg, 30 min before HCl-ethanol
Experimental: To male JCL-SD rats or CRJ-SD rats (weight: 220 g to 260 g) which have been fasted for 24 hours is administered orally 1 ml of 150 mM hydrochloric acid-60% ethanol. After an hour, the stomachs are excised. The ulcer size is determined by measuring the length of each lesion using a stereoscopic microscope and the sum of individual lesion length is expressed as lesion index. The vehicle (1% to 10% ethanol) and the test compounds are administered orally 30 minutes before the hydrochloric acid-ethanol administration. The percent suppression is calculated from the lesion indexes of treated versus non-treated animals.

Row | Structure (SMILES) | Percent Suppression (P.S.) [%]
1 | COC(=O)COc1cccc2c1OC1CC(O)C(C=CC(O)CC(C)CCC=C(C)C)C1O2 (centres unmarked) [Ibl-a] | 64
2 | CCCCC(C)CC(O)C=CC1C(O)CC2Oc3c(OCC(=O)OC)cccc3OC21 (centres unmarked) [Ibd-a] | 91
3 | CC(C)=CCCC(C)CC(O)C=CC1C(O)CC2Oc3c(OCC(=O)O)cccc3OC21 (centres unmarked) [Ibl-b] | 83
4 | CCCCC(C)CC(O)CCC1C(O)CC2Oc3c(OCC(=O)OC)cccc3OC21 (centres unmarked) [Ifd-a] | 66
5 | CCCCC(C)CC(O)CCC1C(O)CC2Oc3c(OCC(=O)OC)cccc3OC21 (centres unmarked) [Ife-a] | 91
6 | CCCCC(C)CC(O)C=CC1C(O)CC2Oc3c(OCC(=O)OC)cccc3OC21 (centres unmarked) [Ide-a] | 37
7 | CCCCC(C)CC(O)C=CC1C(O)CC2Oc3c(OCC(=O)O)cccc3OC21 (centres unmarked) [Ibd-b] | 74
8 | CCCCC(C)CC(O)C=CC1C(O)CC2Oc3c(OCC(=O)OC)cccc3OC21 (centres unmarked) [Idd-a] | 32
9 | CCCCC(C)CC(O)C=CC1C(O)CC2Oc3c(OCC(=O)OC)cccc3OC21 (centres unmarked) [Ibe-a] | 96

same assay, conditions: Rattus norvegicus, po, 1 h, CRJ-SD rats; oral; 30 μg/kg, 30 min before HCl-ethanol; read-out: Percent Suppression (P.S.)

Row | Structure (SMILES) | inhibition in vivo at 0.03 mg/kg [%]
10 | CCCCC(C)CC(O)C=CC1C(O)CC2Oc3c(OCC(=O)OC)cccc3OC21 (centres unmarked) [Ibe-a] | 99

same assay, conditions: Rattus norvegicus, po, 1 h, JCL-SD rats; oral; 30 μg/kg, 30 min before HCl-ethanol; read-out: Percent Suppression (P.S.)

Row | Structure (SMILES) | inhibition in vivo at 0.03 mg/kg [%]
11 | CC(C)=CCCC(C)CC(O)C=CC1C(O)CC2Oc3c(OCC(=O)O)cccc3OC21 (centres unmarked) [Ibk-b] | 70
12 | COC(=O)COc1cccc2c1O[C@@H]1C[C@H](O)[C@@H](/C=C/[C@H](O)C3CCCC3)[C@@H]1O2 (relative stereo) [Ibi-a] | 41
13 | CCCCC(C)(C)[C@@H](O)/C=C/[C@H]1[C@@H]2Oc3cccc(OCC(=O)OC)c3O[C@@H]2C[C@@H]1O (relative stereo) [Ibg-a] | 15
14 | COC(=O)COc1cccc2c1O[C@@H]1C[C@H](O)[C@@H](/C=C/[C@H](O)C3CCCCC3)[C@@H]1O2 (relative stereo) [Ibb-a] | 63
15 | COC(=O)COc1cccc2c1OC1CC(O)C(C=CC(O)CC(C)COc3ccccc3)C1O2 (centres unmarked) [Ibo-a] | 63
16 | O=C(O)COc1cccc2c1O[C@@H]1C[C@H](O)[C@@H](/C=C/[C@@H](O)C3CCCCC3)[C@@H]1O2 (relative stereo) [Idb-b] | 25
17 | COC(=O)COc1cccc2c1O[C@@H]1C[C@H](O)[C@@H](CC[C@H](O)C3CCCCC3)[C@@H]1O2 (relative stereo) [Ifb-a] | 78
18 | COC(=O)COc1cccc2c1OC1CC(O)C(C=CC(O)CC(C)CCC=C(C)C)C1O2 (centres unmarked) [Ibk-a] | 81
19 | CCCCC(C)CC(O)C=CC1C(O)CC2Oc3c(OCC(=O)O)cccc3OC21 (centres unmarked) [Ibe-b] | 80
20 | COC(=O)COc1cccc2c1O[C@@H]1C[C@H](O)[C@@H](CC[C@H](O)C3CCCC3)[C@@H]1O2 (relative stereo) [Ifi-a] | 52
21 | CCCCC[C@@H](O)CC[C@H]1[C@@H]2Oc3cccc(OCC(=O)OC)c3O[C@@H]2C[C@@H]1O (relative stereo) [Ifa-a, methyl[(1R*,2S*,3aR*,9aS*)-2-hydroxy-1-[(R*)-3-hydroxyoctyl]-2,3,3a,9a-tertahydro-1H-cyclopenta[b][1,4]benzodioxin-5-oxyacetate] | 27
22 | CCC#CCC[C@@H](O)/C=C/[C@H]1[C@@H]2Oc3cccc(OCC(=O)OC)c3O[C@@H]2C[C@@H]1O (relative stereo) [Ibc-a] | 29
23 | CCC#CCC[C@@H](O)/C=C/[C@H]1[C@@H]2Oc3cccc(OCC(=O)O)c3O[C@@H]2C[C@@H]1O (relative stereo) [Ibc-b] | 14
24 | O=C(O)COc1cccc2c1O[C@@H]1C[C@H](O)[C@@H](CC[C@H](O)C3CCCCC3)[C@@H]1O2 (relative stereo) [Ifb-b] | 75
25 | O=C(O)COc1cccc2c1O[C@@H]1C[C@H](O)[C@@H](/C=C/[C@H](O)C3CCCCC3)[C@@H]1O2 (relative stereo) [Ibb-b] | 25
26 | CCCCC[C@@H](O)/C=C/[C@H]1[C@@H]2Oc3cccc(OCC(=O)OC)c3O[C@@H]2C[C@@H]1O (relative stereo) [Iba-a] | 36
27 | COC(=O)COc1cccc2c1O[C@@H]1C[C@H](O)[C@@H](CC[C@H](O)CC3CCCCC3)[C@@H]1O2 (relative stereo) [Ifj-a] | 25
28 | COC(=O)COc1cccc2c1OC1CC(O)C(C=CC(O)CC(C)Oc3ccccc3)C1O2 (centres unmarked) [Ibm-a] | 58
29 | CCCCC[C@H](O)/C=C/[C@H]1[C@@H]2Oc3cccc(OCC(=O)OC)c3O[C@@H]2C[C@@H]1O (relative stereo) [Ida-a, methyl [(1R*,2S*,3aR*,9aS*)-2-hydroxy-1-[(3S*,1E)-3-hydroxy-1-octenyl]-2,3,3a,9a-tetrahydro-1H-cyclopenta[b][1,4]benzodioxin-5-yl]oxyacetate] | 37

same assay, conditions: Rattus norvegicus, po, 1 h, JCL-SD rats; oral; 100 μg/kg, 30 min before HCl-ethanol; read-out: Percent Suppression (P.S.)

Row | Structure (SMILES) | inhibition in vivo at 0.1 mg/kg [%]
30 | CCCCC[C@@H](O)/C=C/[C@H]1[C@@H]2Oc3cccc(OCC(=O)O)c3O[C@@H]2C[C@@H]1O (relative stereo) [Iba-b, [(1R*,2S*,3aR*,9aS*)-2-hydroxy-1-[(3R*,1E)-3-hydroxy-1-octenyl]-2,3,3a,9a-tetrahydro-1H-cyclopenta[b][1,4]benzodioxin-5-yl]oxyacetic acid] | 30
31 | CCCCC[C@H](O)/C=C/[C@H]1[C@@H]2Oc3cccc(OCC(=O)O)c3O[C@@H]2C[C@@H]1O (relative stereo) [Ida-b, [(1R*,2S*,3aR*,9aS*)-2-hydroxy-1-[(3S*,1E)-3-hydroxy-1-octenyl]-2,3,3a,9a-tetrahydro-1H-cyclopenta[b][1,4]benzodioxin-5-yl]oxyacetic acid] | 19

same assay, conditions: reference compound; 300 μg/Kg; strain not stated

Row | Structure (SMILES) | Percent Suppression (P.S.) [%]
32 | CCCCC[C@H](O)/C=C/[C@@H]1[C@H]2CC(SCCCC(=O)OC)=N[C@H]2C[C@H]1O [Hoe892, reference compound] | 28

Source: patent US4902811A, “Benzodioxane prostacyclin analogs” (Shionogi & Co., Ltd., priority 1987, dated 1990)
